Laboratory results from patent US20060069132A1, “Azolecarboxamide herbicides” (priority 2004, published 2006).

Key:
cocklebur = experiment: Test C pre-/postemergence herbicide test; type: in vivo, Xanthium strumarium; settings: for Cocklebur plant response rating: 500 g ai/ha
In short: (§1)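 Emerged plants at the 1- to 4-leaf stage (2–18 cm), or freshly planted seeds, received test chemicals in a non-phytotoxic solvent mixture with surfactant. Response was visually scored against controls after 12 to 14 days in the greenhouse, on a 0 (no effect) to 100 (complete control) scale.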

velvetleaf [1] = experiment: Test C pre-/postemergence herbicide test; type: in vivo, Abutilon theophrasti; settings: for Velvetleaf plant response rating: 500 g ai/ha
In short: as §1

yellow nutsedge = experiment: Test C pre-/postemergence herbicide test; type: in vivo, Cyperus esculentus; settings: for Nutsedge, Yellow plant response rating: 500 g ai/ha
In short: as §1

kochia = experiment: Test C pre-/postemergence herbicide test; type: in vivo, Kochia scoparia; settings: for Kochia plant response rating: 500 g ai/ha
In short: as §1

giant foxtail = experiment: Test C pre-/postemergence herbicide test; type: in vivo, Setaria faberi; settings: for Foxtail, Giant plant response rating: 500 g ai/ha
In short: as §1

soybean = experiment: Test C pre-/postemergence herbicide test; type: in vivo, Glycine max; settings: for Soybean plant response rating: 500 g ai/ha
In short: as §1

goosegrass = experiment: Test C pre-/postemergence herbicide test; type: in vivo, Eleusine indica; settings: for Goosegrass plant response rating: 500 g ai/ha
In short: as §1

corn = experiment: Test C pre-/postemergence herbicide test; type: in vivo, Zea mays; settings: for Corn plant response rating: 500 g ai/ha
In short: as §1

bermudagrass = experiment: Test C pre-/postemergence herbicide test; type: in vivo, Cynodon dactylon; settings: for Bermudagrass plant response rating: 500 g ai/ha
In short: as §1

morningglory = experiment: Test C pre-/postemergence herbicide test; type: in vivo, Ipomoea coccinea; set-up: key to Plant response rating, Morningglory: 0 = no effect, 100 = complete control; settings: for Morningglory plant response rating: 500 g ai/ha
In short: as §1

redroot pigweed = experiment: Test A pre-/postemergence herbicide test; type: in vivo, Amaranthus retroflexus
In short: (§2)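 Both application timings were run together: directed soil spray over freshly planted seeds in sandy loam, and runoff spray onto 2–10 cm seedlings. Evaluation after ~10 days in greenhouse used a 0–100 visual scale versus untreated controls.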

woolly cupgrass = experiment: Test C pre-/postemergence herbicide test; type: in vivo, Eriochloa villosa; settings: for Cupgrass, Woolly plant response rating: 500 g ai/ha
In short: as §1

velvetleaf [2] = experiment: Test A pre-/postemergence herbicide test; type: in vivo, Abutilon theophrasti
In short: as §2

[3] = 125 g ai/ha, scale 0 (no effect) to 100 (complete control), visual, 12 to 14 days, preemergence
[4] = 250 g ai/ha, scale 0 to 100 (0 no effect, 100 complete control), visual, 12 to 14 days, preemergence
[5] = Postemergence, 125 g ai/ha, scale 0 to 100, 0 no effect, 100 complete control
[6] = Postemergence, 250 g ai/ha, scale 0 to 100, 0 no effect, 100 complete control
[7] = Preemergence, scale 0 to 100, 0 no effect, 100 complete control
[8] = postemergence, 62 g ai/ha, scale 0 to 100
[9] = Postemergence, 500 g ai/ha, 0 to 100 scale, 0 no effect, 100 complete control
[10] = Postemergence, 2000 g ai/ha, 0 to 100 scale, 0 no effect, 100 complete control
[11] = Preemergence, 500 g ai/ha, visual rating, 0 to 100 scale (0 no effect, 100 complete control)
[12] = Preemergence, 2000 g ai/ha, 0 to 100 scale, 0 no effect, 100 complete control
[13] = postemergence, 125 g ai/ha, scale 0 to 100

C=CCNC(=O)c1cccc(NC(=O)c2cc(C(C)(C)C)nn2CC)c1 [Compound 46]
Plant response rating (0 = no effect, 100 = complete control), Cocklebur (cocklebur; 62 g ai/ha, preemergence): 0 | Plant response rating, Cocklebur (cocklebur; [3]): 40 | Plant response rating, Cocklebur (cocklebur; [4]): 90 | Cocklebur plant response rating (cocklebur; Postemergence, scale 0 to 100): 90 | Plant response rating, Cocklebur (cocklebur; [5]): 70 | Plant response rating, Cocklebur (cocklebur; [6]): 70 | Cocklebur plant response rating (cocklebur; [7]): 90 | Plant response rating, Cocklebur (cocklebur; [8]): 60 | Plant response rating (0 = no effect, 100 = complete control), Velvetleaf (velvetleaf [1]; 62 g ai/ha, preemergence): 90 | Plant response rating, Velvetleaf (velvetleaf [1]; [3]): 100 | Plant response rating, Velvetleaf (velvetleaf [1]; [4]): 100 | Velvetleaf plant response rating (velvetleaf [1]; Postemergence, scale 0 to 100): 80 | Plant response rating, Velvetleaf (velvetleaf [1]; [6]): 80 | Velvetleaf plant response rating (velvetleaf [1]; [7]): 100 | Plant response rating, Velvetleaf (velvetleaf [1]; [8]): 50 | Plant response rating (0 = no effect, 100 = complete control), Nutsedge, Yellow (yellow nutsedge; 62 g ai/ha, preemergence): 0 | Plant response rating, Nutsedge, Yellow (yellow nutsedge; [3]): 0 | Plant response rating, Nutsedge, Yellow (yellow nutsedge; [4]): 0 | Nutsedge, Yellow plant response rating (yellow nutsedge; Postemergence, scale 0 to 100): 40 | Plant response rating, Nutsedge, Yellow (yellow nutsedge; [6]): 20 | Nutsedge, Yellow plant response rating (yellow nutsedge; [7]): 0 | Plant response rating, Nutsedge, Yellow (yellow nutsedge; [8]): 20 | Plant response rating (0 = no effect, 100 = complete control), Kochia (kochia; 62 g ai/ha, preemergence): 0 | Plant response rating, Kochia (kochia; [3]): 90 | Plant response rating, Kochia (kochia; [4]): 100 | Kochia plant response rating (kochia; Postemergence, scale 0 to 100): 100 | Plant response rating, Kochia (kochia; [6]): 100 | Kochia plant response rating (kochia; [7]): 100 | Plant response rating, Kochia (kochia; [8]): 90 | Plant response rating (0 = no effect, 100 = complete control), Foxtail, Giant (giant foxtail; 62 g ai/ha, preemergence): 10 | Plant response rating, Foxtail, Giant (giant foxtail; [3]): 60 | Plant response rating, Foxtail, Giant (giant foxtail; [4]): 100 | Foxtail, Giant plant response rating (giant foxtail; Postemergence, scale 0 to 100): 70 | Plant response rating, Foxtail, Giant (giant foxtail; [5]): 60 | Plant response rating, Foxtail, Giant (giant foxtail; [6]): 60 | Foxtail, Giant plant response rating (giant foxtail; [7]): 100 | Plant response rating, Foxtail, Giant (giant foxtail; [8]): 40 | Plant response rating (0 = no effect, 100 = complete control), Soybean (soybean; 62 g ai/ha, preemergence): 0 | Plant response rating, Soybean (soybean; [3]): 0 | Plant response rating, Soybean (soybean; [4]): 10 | Soybean plant response rating (soybean; Postemergence, scale 0 to 100): 100 | Plant response rating, Soybean (soybean; [6]): 100 | Soybean plant response rating (soybean; [7]): 10 | Plant response rating, Soybean (soybean; [8]): 100 | Plant response rating (0 = no effect, 100 = complete control), Goosegrass (goosegrass; 62 g ai/ha, preemergence): 60 | Plant response rating, Goosegrass (goosegrass; [3]): 90 | Plant response rating, Goosegrass (goosegrass; [4]): 100 | Goosegrass plant response rating (goosegrass; Postemergence, scale 0 to 100): 80 | Plant response rating, Goosegrass (goosegrass; [5]): 50 | Plant response rating, Goosegrass (goosegrass; [6]): 50 | Goosegrass plant response rating (goosegrass; [7]): 100 | Plant response rating, Goosegrass (goosegrass; [8]): 40 | Plant response rating (0 = no effect, 100 = complete control), Corn (corn; 62 g ai/ha, preemergence): 0 | Plant response rating, Corn (corn; [3]): 0 | Plant response rating, Corn (corn; [4]): 10 | Corn plant response rating (corn; Postemergence, scale 0 to 100): 80 | Plant response rating, Corn (corn; [5]): 80 | Plant response rating, Corn (corn; [6]): 80 | Corn plant response rating (corn; [7]): 10 | Plant response rating, Corn (corn; [8]): 80 | Plant response rating (0 = no effect, 100 = complete control), Bermudagrass (bermudagrass; 62 g ai/ha, preemergence): 90 | Plant response rating, Bermudagrass (bermudagrass; [3]): 100 | Plant response rating, Bermudagrass (bermudagrass; [4]): 100 | Plant response rating, Bermudagrass (bermudagrass; [5]): 100 | Bermudagrass plant response rating (bermudagrass; [7]): 100 | Plant response rating (0 = no effect, 100 = complete control), Morningglory (morningglory; 62 g ai/ha, preemergence): 0 | Plant response rating, Morningglory (morningglory; [3]): 0 | Plant response rating, Morningglory (morningglory; [4]): 90 | Morningglory plant response rating (morningglory; Postemergence, scale 0 to 100): 80 | Plant response rating, Morningglory (morningglory; [6]): 60 | Morningglory plant response rating (morningglory; [7]): 90 | Plant response rating, Morningglory (morningglory; [8]): 60 | Plant response rating, Pigweed (redroot pigweed; [9]): 100 | Plant response rating, Pigweed (redroot pigweed; [10]): 100 | Pigweed plant response rating (redroot pigweed; [11]): 100 | Pigweed plant response rating (redroot pigweed; [12]): 100 | Plant response rating (0 = no effect, 100 = complete control), Cupgrass, Woolly (woolly cupgrass; 62 g ai/ha, preemergence): 10 | Plant response rating, Cupgrass, Woolly (woolly cupgrass; [3]): 10 | Plant response rating, Cupgrass, Woolly (woolly cupgrass; [4]): 30 | Cupgrass, Woolly plant response rating (woolly cupgrass; Postemergence, scale 0 to 100): 70 | Plant response rating, Cupgrass, Woolly (woolly cupgrass; [5]): 60 | Plant response rating, Cupgrass, Woolly (woolly cupgrass; [6]): 70 | Cupgrass, Woolly plant response rating (woolly cupgrass; [7]): 80 | Plant response rating, Cupgrass, Woolly (woolly cupgrass; [8]): 40 | Plant response rating, Velvetleaf (velvetleaf [2]; [10]): 75 | Velvetleaf plant response rating (velvetleaf [2]; [11]): 30 | Velvetleaf plant response rating (velvetleaf [2]; [12]): 85

CCCCOC(=O)c1cccc(NC(=O)c2cc(C(C)(C)C)nn2CC)c1 [Compound 86]
Cocklebur plant response rating (cocklebur; Postemergence, scale 0 to 100): 100 | Plant response rating, Cocklebur (cocklebur; [6]): 100 | Plant response rating, Cocklebur (cocklebur; [13]): 95 | Plant response rating, Cocklebur (cocklebur; [8]): 85 | Velvetleaf plant response rating (velvetleaf [1]; Postemergence, scale 0 to 100): 85 | Plant response rating, Velvetleaf (velvetleaf [1]; [6]): 80 | Plant response rating, Velvetleaf (velvetleaf [1]; [13]): 60 | Plant response rating, Velvetleaf (velvetleaf [1]; [8]): 40 | Nutsedge, Yellow plant response rating (yellow nutsedge; Postemergence, scale 0 to 100): 30 | Plant response rating, Nutsedge, Yellow (yellow nutsedge; [6]): 10 | Plant response rating, Nutsedge, Yellow (yellow nutsedge; [13]): 5 | Plant response rating, Nutsedge, Yellow (yellow nutsedge; [8]): 0 | Kochia plant response rating (kochia; Postemergence, scale 0 to 100): 95 | Plant response rating, Kochia (kochia; [6]): 95 | Plant response rating, Kochia (kochia; [13]): 85 | Plant response rating, Kochia (kochia; [8]): 80 | Foxtail, Giant plant response rating (giant foxtail; Postemergence, scale 0 to 100): 70 | Plant response rating, Foxtail, Giant (giant foxtail; [6]): 50 | Plant response rating, Foxtail, Giant (giant foxtail; [13]): 20 | Plant response rating, Foxtail, Giant (giant foxtail; [8]): 10 | Soybean plant response rating (soybean; Postemergence, scale 0 to 100): 95 | Plant response rating, Soybean (soybean; [6]): 90 | Plant response rating, Soybean (soybean; [13]): 70 | Plant response rating, Soybean (soybean; [8]): 45 | Goosegrass plant response rating (goosegrass; Postemergence, scale 0 to 100): 85 | Plant response rating, Goosegrass (goosegrass; [6]): 80 | Plant response rating, Goosegrass (goosegrass; [13]): 60 | Plant response rating, Goosegrass (goosegrass; [8]): 50 | Corn plant response rating (corn; Postemergence, scale 0 to 100): 30 | Plant response rating, Corn (corn; [6]): 20 | Plant response rating, Corn (corn; [13]): 20 | Plant response rating, Corn (corn; [8]): 15 | Bermudagrass plant response rating (bermudagrass; Postemergence, scale 0 to 100): 100 | Plant response rating, Bermudagrass (bermudagrass; [6]): 30 | Plant response rating, Bermudagrass (bermudagrass; [8]): 10 | Morningglory plant response rating (morningglory; Postemergence, scale 0 to 100): 85 | Plant response rating, Morningglory (morningglory; [6]): 85 | Plant response rating, Morningglory (morningglory; [13]): 75 | Plant response rating, Morningglory (morningglory; [8]): 10 | Pigweed plant response rating (redroot pigweed; [9]): 55 | Plant response rating, Pigweed (redroot pigweed; [10]): 95 | Pigweed plant response rating (redroot pigweed; [11]): 0 | Pigweed plant response rating (redroot pigweed; [12]): 55 | Cupgrass, Woolly plant response rating (woolly cupgrass; Postemergence, scale 0 to 100): 85 | Plant response rating, Cupgrass, Woolly (woolly cupgrass; [6]): 80 | Plant response rating, Cupgrass, Woolly (woolly cupgrass; [13]): 70 | Plant response rating, Cupgrass, Woolly (woolly cupgrass; [8]): 50 | Velvetleaf plant response rating (velvetleaf [2]; [9]): 40 | Plant response rating, Velvetleaf (velvetleaf [2]; [10]): 30 | Velvetleaf plant response rating (velvetleaf [2]; [11]): 0 | Velvetleaf plant response rating (velvetleaf [2]; Preemergence, 2000 g ai/ha, visual rating, 0 to 100 scale (0 no effect, 100 complete control)): 10
